For orientation: IC50 means the concentration needed to halve the response being measured.

In test [1] the test system is Hedgehog Signaling Pathway. The test is described as follows: SHH-induced differentiation of C3H10T1/2 cells into osteoblastic cells, intracellular alkaline phosphatase activity. The test is classed as cell-based, mouse. As to conditions: 10 nM SHH-N, 5 days, alkaline phosphatase activity (OD405), read-out: IC50 values of compounds that inhibit Hh pathway. The protocol:
The Application of SHH to Induce Pluripotent Mesenchymal Mouse Embryonic Cell C3H10T1/2 to Differentiate into Osteoblastic Cells for the Determination of the Inhibitory Activity of N-(3-(1H-benzo[d]imidazol-2-yl)-4-chlorophenyl)-2-methyl-4-((2S,6R)-2,6-dimethylmorpholino)benzamide and Analogs on Hedgehog Signaling Pathway
The C3H10T1/2 cells were grown in DMEM medium supplemented with 10% fetal bovine serum (FBS, Hyclone) at 37° C. with 5% CO2. 10000 cells were sown to each well of a 96-well microplate a day before the experiment and grown overnight. […] The reference compound and testing compounds were serially diluted 1 to 3 and 1 to 10 in DMSO to seven concentrations with the eighth concentration being DMSO. A 10-fold dilution was prepared by mixing 10 μL of the DMSO dilutions with 90 μL of fresh growing medium. Pre-sown cells were taken out from incubator and the medium was removed. To each well, 180 μL of inducing medium containing 10 nM of SHH-N was added and followed immediately with 20 μL of 10× testing or reference compound dilutions. The testing compound concentrations are between 10 μM and 10 nM. The cells were then returned to CO2 incubator to grow additional 5 days at 37° C.
(§1) After incubating for 5 days, the cells were taken out and intracellular alkaline phosphatase activity was tested. The alkaline phosphatase activity was measured as follows:
3) Preparation of Substrate Solution:
(§2) Solution A: A 0.5 mM MgCl2 (Sigma Prod. No. M-0250) solution was prepared.
(§3) After the pH value was adjusted to 9.8 with 5 M HCl at 37° C., the total volume was adjusted to 100 mL.
(§4) After it is completely dissolved the total volume was adjusted to 10 mL with the final concentration being 1 mM.
Substrate reaction medium: to 10 mL of solution B, 250 μL of solution A and 200 μL of solution C were added, and mixed well.
4) The Measurement of Intracellular Alkaline Phosphatase Activity:
(§5) After taking out the cells from the incubator, the cell culture medium was removed and cells were washed twice with PBS. 20 μL of lysis solution (0.2% Triton solution) was added to each well. After being shaken for 30 min at room temperature, each well of cells received 80 μL of substrate reaction medium. The microplate was placed immediately into a VariSkan Flashplate reader and absorbance at OD405 was read as background reading. The plate was replaced back to cell culture incubator at 37° C. for additional 30 min and the absorbance was read again using VariSkan Flash plate reader at OD405.
The data were analyzed by subtracting the background reading from the reading at 30 min, and the obtained numbers were plotted and analyzed with Prism 5 software (GraphPad). The phosphatase activity (calculated OD405) was plotted against the log concentration of testing compound, and the obtained plot was fitted with non-linear curve fitting equation to calculate IC50 values. The curve fitting equation is Y=Bottom+(Top−Bottom)/(1+10^(X−Log IC50)). X is the logarithm of concentration. Y is the measure of alkaline phosphatase activity (OD405).
(§6) The calculated IC50 value is a measurement of the inhibitory activity of compound to Hh pathway.

The test system of test [2] is Hedgehog Signaling Pathway. The test is described as follows: SAG-induced differentiation of C3H10T1/2 cells into osteoblastic cells, intracellular alkaline phosphatase activity. Type of test: cell-based, mouse. The conditions noted are these: 1 μM SAG, 5 days, alkaline phosphatase activity (OD405), read-out: IC50 values of compounds that inhibit Hh pathway.
Excerpt: The Application of SAG to Induce Pluripotent Mesenchymal Mouse Embryonic Cell C3H/10T1/2 to Differentiate into Osteoblastic Cells for the Determination of the Inhibitory Activity of N-(3-(1H-benzo[d]imidazol-2-yl)-4-chlorophenyl)-2-methyl-4-((2S,6R)-2,6-dimethylmorpholino)benzamide and Analogs on Hedgehog Signaling Pathway
The intracellular alkaline phosphatase activity is a reliable indication of the differentiation process. Therefore this enzymatic activity can be used to monitor the activity of hedgehog pathway inhibitors.
The C3H10T1/2 cells were grown in DMEM medium supplemented with 10% fetal bovine serum (FBS, Hyclone) at 37° C. with 5% CO2. 10000 cells were sown to each well of a 96-well microplate a day before the experiment and grown overnight. At the day of experiment, the inducing medium and inhibitor solutions were prepared as follows: the reference compound and testing compounds were serially diluted 1 to 3 and 1 to 10 in DMSO to seven concentrations with the eighth concentration being DMSO. A 10-fold dilution was prepared by mixing 10 μL of the DMSO dilution with 90 μL of fresh growing medium. […] Pre-sown cells were taken out from incubator and the medium was removed. To each well, 180 μL inducing medium was added and followed immediately with 20 μL of testing or reference compound dilutions. The testing compound concentrations are between 10 μM and 1 nM. The cells were then return to CO2 incubator to grow additional 5 days at 37° C.
as §1
1) Preparation of Substrate Solution:
as §2, §3, §4
Substrate reaction medium: To 10 mL of solution B, 250 μL of solution A and 200 μL of solution C were added, and mixed well.
2) the Measurement of Intracellular Alkaline Phosphatase Activity:
as §5
The data were analyzed by subtracting the background reading from the reading at 30 min, and the obtained numbers were plotted and analyzed with Prism 5 software (GraphPad). The phosphatase activity (calculated OD405) was plotted against the log concentration of testing compound, and the obtained plot was fitted with non-linear curve fitting equation to calculate IC50 values. The curve fitting equation is Y=Bottom+(Top−Bottom)/(1+10^((X−Log IC50))). X is the logarithm of concentration. Y is the measure of alkaline phosphatase activity (OD405).
as §6

The mark [3] stands for this setting: Mus musculus, C3H 10T1/2, 120 h.

For the molecule `C[C@@H]1CN(c2ccc(C(=O)Nc3cccc(-c4cn5cccnc5n4)c3)cn2)C[C@H](C)O1` [Example 57, N-(3-(imidazo[1,2-a]pyrimidin-2-yl)phenyl)-6-((2S,6R)-2,6-dimethylmorpholino)nicotinamide], the concentration for half-maximal inhibition (IC50) in test [1] (setting [3]) and in test [2] (setting [3]) was more than 10000 nM throughout.

Regarding `C[C@@H]1CN(c2ccc(C(=O)Nc3ccc(Cl)c(-c4nnc5cnccn45)c3)cn2)C[C@H](C)O1` [Example 58, N-(3-([1,2,4]triazolo[4,3-a]pyrazin-3-yl)-4-chlorophenyl)-6-((2S,6R)-2,6-dimethylmorpholino)nicotinamide], the IC50 in test [1] (setting [3]) and in test [2] (setting [3]) was more than 10000 nM each time.

Take `Cc1cc(-c2ccc(C(F)(F)F)cc2)ccc1C(=O)Nc1cc(-c2nc3ccccc3[nH]2)ccn1` [Example 61, N-(4-(1H-benzo[d]imidazol-2-yl)pyridin-2-yl)-3-methyl-4′-(trifluoromethyl)biphenyl-4-carboxamide]: the IC50 in test [1] (setting [3]) and in test [2] (setting [3]) was more than 10000 nM in each case.

For `Cc1cc(-c2ccc(C(F)(F)F)cc2)ccc1C(=O)Nc1cc(-c2nc3ccccc3[nH]2)cc(C(F)(F)F)c1` [Example 62, N-(3-(1H-benzo[d]imidazol-2-yl)-5-(trifluoromethyl)phenyl)-3-methyl-4′-(trifluoromethyl)biphenyl-4-carboxamide], the results for the IC50 in test [1] (setting [3]) and in test [2] (setting [3]) were 409 nM and more than 10000 nM, respectively.

For the molecule `Cc1cc(-c2ccc(C(F)(F)F)cc2)ccc1C(=O)Nc1cc(Cl)cc(-c2nc3ccccc3[nH]2)c1` [Example 63, N-(3-(1H-benzo[d]imidazol-2-yl)-5-chlorophenyl)-3-methyl-4′-(trifluoromethyl)biphenyl-4-carboxamide], the IC50 in test [1] (setting [3]) stood at 39 nM; in test [2] (setting [3]) it was 1340 nM.

With `Cc1cc(-c2ccc(C(F)(F)F)cc2)ccc1C(=O)Nc1cccc(-c2nc3ccccc3[nH]2)c1Cl` [Example 64, N-(3-(1H-benzo[d]imidazol-2-yl)-2-chlorophenyl)-3-methyl-4′-(trifluoromethyl)biphenyl-4-carboxamide], the values for the IC50 in test [1] (setting [3]) and in test [2] (setting [3]) were 1130 nM and 636 nM, respectively.

With `Cc1c(NC(=O)c2ccc(N3C[C@@H](C)O[C@@H](C)C3)nc2)cccc1-c1nc2ccccc2[nH]1` [Example 65, N-(3-(1H-benzo[d]imidazol-2-yl)-2-methylphenyl)-6-((2S,6R)-2,6-dimethylmorpholino)nicotinamide], the values for the IC50 in test [1] (setting [3]) and in test [2] (setting [3]) were 501 nM and 522 nM, respectively.

Regarding `Cc1cc(-c2ccc(C(F)(F)F)cc2)ccc1C(=O)Nc1cccc(-c2nc3ccccc3[nH]2)n1` [Example 72, N-(6-(1H-benzo[d]imidazol-2-yl)pyridin-2-yl)-3-methyl-4′-(trifluoromethyl)biphenyl-4-carboxamide], the concentration for half-maximal inhibition (IC50) in test [1] (setting [3]) is 467 nM; in test [2] (setting [3]), more than 10000 nM.

For the molecule `Cc1cc(-c2ccc(C(F)(F)F)cc2)ccc1C(=O)Nc1cccc(-c2nc3ccccn3n2)c1` [Example 73, N-(3-([1,2,4]triazolo[1,5-a]pyridin-2-yl)phenyl)-3-methyl-4′-(trifluoromethyl)biphenyl-4-carboxamide], the values for the IC50 in test [1] (setting [3]) and in test [2] (setting [3]) were 134 nM and 163 nM, respectively.

As for `Cc1cc(-c2ccc(C(F)(F)F)cc2)ccc1C(=O)Nc1ccc(F)c(-c2nc3ccccc3[nH]2)c1` [Example 74, N-(3-(1H-benzo[d]imidazol-2-yl)-4-fluorophenyl)-3-methyl-4′-(trifluoromethyl)biphenyl-4-carboxamide], the IC50 in test [1] (setting [3]) was 4.5 nM; in test [2] (setting [3]), 191 nM.

With `Cc1cc(-c2ccc(C(F)(F)F)cc2)ccc1C(=O)Nc1ccc(Br)c(-c2nc3ccccc3[nH]2)c1` [Example 75, N-(3-(1H-benzo[d]imidazol-2-yl)-4-bromophenyl)-3-methyl-4′-(trifluoromethyl)biphenyl-4-carboxamide], the half-inhibitory concentration (IC50) in test [1] (setting [3]) came out at 2.9 nM; in test [2] (setting [3]), 17 nM.

Turning to `COc1ccc(NC(=O)c2ccc(-c3ccc(C(F)(F)F)cc3)cc2C)cc1-c1nc2ccccc2[nH]1` [Example 76, N-(3-(1H-benzo[d]imidazol-2-yl)-4-methoxyphenyl)-3-methyl-4′-(trifluoromethyl)biphenyl-4-carboxamide], the IC50 in test [1] (setting [3]) and in test [2] (setting [3]) was more than 10000 nM throughout.

Regarding `Cc1cc(N2CCN(C)CC2)ccc1C(=O)Nc1ccc(Cl)c(-c2nc3ccccc3[nH]2)c1` [Example 92, N-(3-(1H-benzo[d]imidazol-2-yl)-4-chlorophenyl)-2-methyl-4-(4-methylpiperazin-1-yl)benzamide], the half-inhibitory concentration (IC50) turned out to be 45 nM in test [1] (setting [3]) and 312 nM in test [2] (setting [3]).

As for `Cc1ccc(NC(=O)c2ccc(N3C[C@@H](C)N(C)[C@@H](C)C3)cc2Cl)cc1-c1nc2ccccc2[nH]1` [Example 102, N-(3-(1H-benzo[d]imidazol-2-yl)-4-methylphenyl)-2-chloro-4-((3S,5R)-3,4,5-trimethylpiperazin-1-yl)benzamide], the 50% inhibitory concentration (IC50) in test [1] (setting [3]) was 3.9 nM; in test [2] (setting [3]), 47 nM.

Turning to `Cc1cc(N2CCNCC2)ccc1C(=O)Nc1ccc(Cl)c(-c2nc3ccccc3[nH]2)c1` [Example 108, N-(3-(1H-benzo[d]imidazol-2-yl)-4-chlorophenyl)-2-methyl-4-(piperazin-1-yl)benzamide], the figures for the 50% inhibitory concentration (IC50) in test [1] (setting [3]) and in test [2] (setting [3]) were 76 nM and 698 nM, respectively.

For the molecule “N-(3-(imidazo[1,2-a]pyridin-2-yl)-4-chlorophenyl)-3-methyl-4′-(trifluoromethyl)biphenyl-4-carboxamide [Example 67]”, the values for the IC50 in test [1] and in test [2] were 68 nM and more than 10000 nM, respectively.

The values above are taken from US10676468B2, “N-(3-heteroarylaryl)-4-arylarylcarboxamides and analogs as hedgehog pathway inhibitors and use thereof” (IMPACT Therapeutics, Inc., priority 2012, dated 2020).
